system: RMA; settings: not given

`C[C@@H](O)CO` [(R)-1,2-Propandiol] and `C[C@H](O)CO` [(S)-1,2-propandiol] are the same in activity: 0.7% for the first, 0.7% for the second.

First: C[C@@H](O)CCO [(R)-1,3-Butandiol]
Second: C[C@H](O)CCO [(S)-1,3-Butandiol]
The activity of the first is lower: 1.3% for the first, 9.5% for the second.

Compared with `CC(O)CC(C)O` (stereo not drawn) [2,4-Pentandiol], `C[C@@H](O)C[C@@H](C)O` [(2R,4R)-2,4-Pentandiol] is lower in activity: 34% for the first, 0.5% for the second.

First: C[C@H](O)c1ccccc1 [(S)-1-Phenylethanol]
Second: CC(C)O [2-Propanol]
The activity of the first is higher: 307% for the first, 66% for the second.

Going from `CCC(O)CC` [3-Pentanol] to `CCCC(C)O` (stereo not drawn) [2-Pentanol], the activity rises from 40% to 183%.

Going from `CCC(O)C(=O)O` (stereo not drawn) [2-Hydroxybutyric acid] to `C[C@H](O)CN` [(S)-1-Amino-2-propanol], the activity falls from 4.9% to 2%.

Compared with `CO` [Methanol], `CCCCCCC(C)O` (stereo not drawn) [2-Octanol] is higher in activity: 0.6% for the first, 134% for the second.

In the case of `OC1CCCCC1` [Cyclohexanol], the activity is reported as 30%.

system: enzyme derived from Candida parapsilosis IFO 1396 strain; settings: cited from earlier work

In the case of `O[C@H](CS)[C@H](O)CS` (racemic) [Dithiothreitol], the “inhibition of enzyme activity (in words)” value is listed as “inhibited”.
In the case of `OCCS` [β-Mercaptoethanol], the “inhibition of enzyme activity (in words)” value is given as “inhibited”.

system: RMA; settings: carbonyl compound 1.5 mM, NADH 0.25 mM, pH 6.5, 30° C.; acetophenone = 100%

First: CC(=O)CC(=O)OCc1ccccc1 [Benzyl acetoacetate]
Second: CCOC(=O)CC(=O)COCc1ccccc1 [Ethyl 4-benzyloxyacetoacetate]
The “Relative activity (%) (reducing activity)” value of the first is higher: 115% for the first, 10% for the second.

`CCCC=O` [n-Butyraldehyde] and `CCCCCC=O` [n-Hexylaldehyde] are the same in “Relative activity (%) (reducing activity)” value: 117% for the first, 117% for the second.

First: CC(=O)c1cccc(O)c1 [m-Hydroxyacetophenone]
Second: CC(=O)c1cccc(Cl)c1 [m-Chloroacetophenone]
The “Relative activity (%) (reducing activity)” value of the first is lower: 12% for the first, 130% for the second.

Compared with `CC(=O)c1ccccc1O` [o-Hydroxyacetophenone], `CC(=O)c1ccccc1Cl` [o-Chloroacetophenone] is lower in “Relative activity (%) (reducing activity)” value: 9% for the first, 2% for the second.

Going from `CC(=O)c1ccco1` [2-Acetyrfuran] to `CC(=O)c1cccnc1` [3-Acetylpyridine], the “Relative activity (%) (reducing activity)” value rises from 8% to 19%.

First: COc1ccccc1NC(=O)CC(C)=O [o-Acetoacetanisidide]
Second: CC(=O)CC(=O)Nc1ccccc1 [Acetoacetoanilide]
The “Relative activity (%) (reducing activity)” value of the first is higher: 35% for the first, 1% for the second.

First: COc1cccc(C(C)=O)c1 [m-Methoxyacetophenone]
Second: CC(=O)c1cccc([N+](=O)[O-])c1 [m-Nitroacetophenone]
The “Relative activity (%) (reducing activity)” value of the first is higher: 111% for the first, 89% for the second.

Compared with `CCCCCC(=O)CC` [3-Octanone], `CCCCCC(C)=O` [2-Heptanone] is higher in “Relative activity (%) (reducing activity)” value: 3% for the first, 82% for the second.

Compared with `CCC(C)=O` [2-Butanone], `CCCC(C)=O` [2-Pentanone] is higher in “Relative activity (%) (reducing activity)” value: 54% for the first, 141% for the second.

First: CCCCC(C)=O [2-Hexanone]
Second: CCCCCCC(C)=O [2-Octanone]
The “Relative activity (%) (reducing activity)” value of the first is lower: 87% for the first, 95% for the second.

Compared with `CC(=O)c1ccc(F)cc1` [p-Fluoroacetophenone], `CC(=O)c1ccc(C)cc1` [p-Methylacetophenone] is lower in “Relative activity (%) (reducing activity)” value: 110% for the first, 91% for the second.

Going from `O=C1CCSC1` [Tetrahydrothiophen-3-one] to `O=C1CCCC1` [Cyclopentanone], the “Relative activity (%) (reducing activity)” value rises from 4% to 10%.

Going from `CC(=O)CC(=O)Nc1ccc(Cl)cc1` [4′-Chroloacetoacetanilide] to `CC(=O)CC(=O)Nc1ccc(C)cc1` [N-Acetoacetyl-p-toluidine], the “Relative activity (%) (reducing activity)” value falls from 4% to 2%.

First: O=CCCCC=O [Glutaraldehyde]
Second: O=CCCc1ccccc1 [3-Phenypropionaldehyde]
The “Relative activity (%) (reducing activity)” value of the first is lower: 9% for the first, 112% for the second.

Compared with `O=Cc1ccncc1` [4-Pyridinecarbaldehyde], `CC(=O)c1ccncc1` [4-Acetylpyridine] is higher in “Relative activity (%) (reducing activity)” value: 5% for the first, 83% for the second.

Compared with `CC(=O)CC(=O)Nc1cc(Cl)ccc1Cl` [2′,5′-Dichloro acetoacetanilide], `CC(=O)c1ccc(Cl)cc1` [p-Chloroacetohenone] is higher in “Relative activity (%) (reducing activity)” value: 34% for the first, 130% for the second.

Compared with `O=Cc1cccc([N+](=O)[O-])c1` [m-Nitrobenzaldehyde], `O=Cc1ccc([N+](=O)[O-])cc1` [p-Nitrobenzaldehyde] is lower in “Relative activity (%) (reducing activity)” value: 28% for the first, 27% for the second.

Going from `CCC=O` [Propionaldehyde] to `CCOC(=O)C(C)=O` [Ethyl pyruvate], the “Relative activity (%) (reducing activity)” value rises from 39% to 87%.

`CC(=O)c1cc2ccoc2cn1` [5-Acetylfuro[2.3-c]pyridine] and `CC(=O)c1ccccn1` [2-Acetylpyridine] are the same in “Relative activity (%) (reducing activity)” value: 63% for the first, 63% for the second.

Compared with `CCOC(=O)CC(C)=O` [Ethyl 3-oxobutanoate], `COC(=O)CC(C)=O` [Methyl acetoacetate] is lower in “Relative activity (%) (reducing activity)” value: 93% for the first, 66% for the second.

Compared with `COC(=O)C(C)=O` [Methyl pyruvate], `CC(=O)C(C)=O` [diacethyl] is lower in “Relative activity (%) (reducing activity)” value: 71% for the first, 24% for the second.

Compared with `CC(=O)c1cnccn1` [Acetypyrazine], `CC(=O)c1ccccc1` [Acetophenone] is higher in “Relative activity (%) (reducing activity)” value: 76% for the first, 100% for the second.

Going from `CCOC(=O)CC(=O)CN=[N+]=[N-]` [Ethyl 4-azideacetoacetate] to `CCOC(=O)CC(=O)CCl` [Ethyl 4-chloroacetoacetate], the “Relative activity (%) (reducing activity)” value rises from 21% to 52%.

Going from `CCCCCCCCC(=O)C(=O)OC` [Methyl 2-oxodecanate] to `CCCCCCCCOC(=O)CC(=O)CCl` [n-Octyl 4-chloroacetoacetate], the “Relative activity (%) (reducing activity)” value rises from 2% to 24%.

First: CC(C)=O [Acetone]
Second: CC(=O)C(C)C [Methyl iso-propyl ketone]
The “Relative activity (%) (reducing activity)” value of the first is higher: 28% for the first, 4% for the second.

First: CC(=O)CC(N)=O [Acetoacetamide]
Second: CC(=O)CC(C)=O [Acethylacetone]
The “Relative activity (%) (reducing activity)” value of the first is lower: 10% for the first, 19% for the second.

First: CC(=O)CC(C)C [4-Methyl-2-pentanone]
Second: CC(=O)CC(=O)OC(C)(C)C [tert-Butylacetoacetate]
The “Relative activity (%) (reducing activity)” value of the first is lower: 70% for the first, 88% for the second.

First: COc1ccccc1C(C)=O [o-Methoxyacetophenone]
Second: CC(=O)CCc1ccccc1 [Benzylacetone]
The “Relative activity (%) (reducing activity)” value of the first is lower: 10% for the first, 33% for the second.

First: O=Cc1ccccc1 [Benzaldehyde]
Second: CC(C=O)c1ccccc1 (stereo not drawn) [2-Phenypropionaldehyde]
The “Relative activity (%) (reducing activity)” value of the first is lower: 29% for the first, 37% for the second.

First: CCOC(=O)C(Cl)C(C)=O (stereo not drawn) [Ethyl 2-chloroacetoacetate]
Second: CC(=O)C(Cl)C(C)=O [3-Chloro-2,4-pentadione]
The “Relative activity (%) (reducing activity)” value of the first is lower: 26% for the first, 43% for the second.

Going from `CCOC(=O)c1ccc(C(C)=O)cc1` [Ethyl 4-acetylbenzoate] to `CCCC(=O)CC(=O)OCC` [Ethyl 3-oxohexanate], the “Relative activity (%) (reducing activity)” value falls from 70% to 2%.

Compared with `O=Cc1ccccc1[N+](=O)[O-]` [o-Nitrobenzeldehyde], `O=Cc1ccccn1` [2-Pyridinecarbaldehyde] is lower in “Relative activity (%) (reducing activity)” value: 29% for the first, 11% for the second.

With `COC(=O)CC(=O)CCl` [Methyl 4-chloroacetoacetate] the “Relative activity (%) (reducing activity)” value was 35%.

same assay, conditions: pH 6.5

With `O=C(CCl)c1cccc(Cl)c1` [2-Chloro-1-(3′-cholophenyl)ethanone] the “Relative activity (%) (reducing activity)” value was 20%.

system: RMA; format: biochemical, Candida maltosa IFO 1977 strain; settings: not given; remark: another data set of the same source

With `O=C(O)CI` [Iodoacetic acid] the “Relative activity (%) of RMA after treatment with inhibitor” value (“Relative activity (%) … with inhibitor” for short) was 78.9%.

same assay, conditions: inhibitor 0.01 mM, 30° C. for 30 minutes; untreated RMA = 100%

With `NO` [NH2OH] the “Relative activity (%) … with inhibitor” value was 96.1%.

same assay, conditions: inhibitor 0.05 mM, 30° C. for 30 minutes; untreated RMA = 100%

With `O=C(O)c1cc[c]([Hg][Cl])cc1` [p-Chloromercuribenzoate] the “Relative activity (%) … with inhibitor” value was 96.3%.

same assay, conditions: inhibitor 50 mM, 30° C. for 30 minutes; untreated RMA = 100%

With `C/C=C/C(=O)O` [Crotonic acid] the “Relative activity (%) … with inhibitor” value was 10.4%.

system: RMA; format: biochemical, Candida maltosa IFO 1977 strain; settings: inhibitor 1 mM, 30° C. for 30 minutes; untreated RMA = 100%
Method: In 1 mM concentration solution or mixture of various compounds, a polypeptide is treated at 30° C. for 30 minutes. […] Concentrations of agents at the time of treatment are illustrated in Table 6.

First: O[C@H](CS)[C@H](O)CS (racemic) [Dithiothreitol]
Second: OCCS [β-Mercaptoethanol]
The “Relative activity (%) … with inhibitor” value of the first is lower: 92.2% for the first, 95.4% for the second.

Going from `O=S(=O)(F)Cc1ccccc1` [Phenylmethanesulfonyl fluoride] to `O=C(O)c1ccc(O)cc1` [p-Hydroxybenzoic acid], the “Relative activity (%) … with inhibitor” value falls from 96.0% to 91.5%.

Compared with `c1cnc2c(c1)ccc1cccnc12` [o-Phenanthroline], `CCN1C(=O)C=CC1=O` [N-Ethylmaleimide] is higher in “Relative activity (%) … with inhibitor” value: 0.0% for the first, 94.7% for the second.

Compared with `[Cl][Hg][Cl]` [HgCl2, mercury chloride], `O=S(=O)([O-])[O-].[Zn+2]` [ZnSO4, zinc sulfate] is higher in “Relative activity (%) … with inhibitor” value: 0.0% for the first, 23.1% for the second.

In the case of `O=S(=O)([O-])[O-].[Cu+2]` [CuSO4, copper sulfate], the “Relative activity (%) … with inhibitor” value is reported as 28.5%.

same assay, conditions: treatment at 30° C. for 30 minutes, concentrations of Table 6

For `O[C@H](CS)[C@H](O)CS` (racemic) [Dithiothreitol], the “inhibition of RMA (in words)” value was “did not”.
With `c1cnc2c(c1)ccc1cccnc12` [o-Phenanthroline] the “inhibition of RMA (in words)” value was “inhibited”.
For `[Cl][Hg][Cl]` [HgCl2, mercury chloride], the “inhibition of RMA (in words)” value was “inhibited”.
With `OCCS` [β-Mercaptoethanol] the “inhibition of RMA (in words)” value was “did not”.
With `O=S(=O)([O-])[O-].[Zn+2]` [ZnSO4, zinc sulfate] the “inhibition of RMA (in words)” value was “inhibited”.
In the case of `O=S(=O)([O-])[O-].[Cu+2]` [CuSO4, copper sulfate], the “inhibition of RMA (in words)” value is reported as “inhibited”.

— patent US8129163B2, “Gene suitable for alcohol dehydrogenase, vector and transformant” (Kaneka Corporation, priority 2006, dated 2012)
